Data published in patent US6908899B2, “Pro-inflammatory fibrinopeptide” (U.S. Dept. of Veterans Affairs, priority 2001, dated 2005).

Assays:
Synovial cells [1] = experiment: SAC competition assay by flow cytometry; assay type: binding, human
From the text: Thus, labeled peptide could facilitate the isolation, identification and characterization of its receptor, through standard immunological techniques such as immunohistochemistry, flow cytometry and immunoprecipitation.

foreskin fibroblasts [2] = experiment: IL-6 ELISA on cell supernatants; assay type: cell-based, human; conditions: overnight with GPRP
RA synovial fibroblasts [3] = experiment: IL-8 ELISA on cell culture supernatants; assay type: cell-based, human; conditions: for IL-8: 1 mg/ml GPRP
Protocol: (§1) I used commercial ELISA kits to assay cell culture supernatants of RA fibroblasts that were cultured for both 24 and 48 hours with or without peptide.

[4] = tested on: synovial cells from patients with osteoarthritis (OA); experiment: ICAM-1 ELISA (O.D. 492); assay type: cell-based, human; conditions: OA line; overnight; IL-1 0.5 ng/ml, GPRP or GPRP-amide 1 mg/ml, fibrinogen receptor peptide 0.1 mg/ml, FPA, FPB 10^−4 M
RA synovial fibroblasts [5] = experiment: GRO-alpha ELISA on cell culture supernatants; assay type: cell-based, human
Protocol: as §1

RA synovial cell lines = experiment: Flow cytometry analysis of ICAM-1 expression; assay type: cell-based, human
[6] = tested on: synovial fibroblast lines; experiment: V-CAM-1 expression on synovial lines; assay type: cell-based, human; conditions: in response to the peptide
synovial cells [7] = experiment: RT-PCR of IL-6 gene expression; assay type: cell-based; conditions: versus controls
RA synovial fibroblasts [8] = experiment: ICAM-1 cell-ELISA (O.D. 492); assay type: cell-based, human; conditions: for ICAM-1 O.D. 492 / ICAM-1 expression O.D. 492: overnight; for ICAM-1 O.D. 492: IL-1 0.5 ng/ml, GPRP or GPRP-amide 1 mg/ml, fibrinogen receptor peptide 0.1 mg/ml, FPA, FPB 10^−4 M; for ICAM-1 expression O.D. 492: fibrin clots 0.6 mg/ml or GPRP 1 mg/ml, mean ± SD, triplicate
[9] = tested on: human foreskin fibroblasts; experiment: Flow cytometry analysis of ICAM-1 expression; assay type: cell-based; conditions: GPRP 1 mg/ml
[10] = tested on: RA derived synovial cells; experiment: In vitro T cell adhesion assay; assay type: cell-based, human; conditions: ± SD, triplicate wells
foreskin fibroblasts [11] = experiment: IL-8 ELISA on cell culture supernatants; assay type: cell-based, human; conditions: 1 mg/ml GPRP
[12] = tested on: OA derived synovial cells; experiment: In vitro T cell adhesion assay; assay type: cell-based, human; conditions: OA line 15, ± SD, triplicate wells
[13] = tested on: human lung fibroblastic cells; experiment: Response of lung fibroblastic cells to the fibrinopeptide; assay type: cell-based
From the text: The peptide of the invention is believed to play a role in inflammatory lung diseases in which fibrin deposition is also known to occur. My research has proven that human lung fibroblastic cells are also responsive to the fibrinopeptide, and under its influence, will express selective pro-inflammatory molecules on the cell surface and will secrete pro-inflammatory mediators, such as cytokines and chemical attractants for immune cells.

fibrin polymerization = experiment: Inhibition of fibrin polymerization; assay type: biochemical; conditions: applicant's studies of fibrin co-culture (Reference 19)
Sequence of fibrin polymerization (P02679 27-453): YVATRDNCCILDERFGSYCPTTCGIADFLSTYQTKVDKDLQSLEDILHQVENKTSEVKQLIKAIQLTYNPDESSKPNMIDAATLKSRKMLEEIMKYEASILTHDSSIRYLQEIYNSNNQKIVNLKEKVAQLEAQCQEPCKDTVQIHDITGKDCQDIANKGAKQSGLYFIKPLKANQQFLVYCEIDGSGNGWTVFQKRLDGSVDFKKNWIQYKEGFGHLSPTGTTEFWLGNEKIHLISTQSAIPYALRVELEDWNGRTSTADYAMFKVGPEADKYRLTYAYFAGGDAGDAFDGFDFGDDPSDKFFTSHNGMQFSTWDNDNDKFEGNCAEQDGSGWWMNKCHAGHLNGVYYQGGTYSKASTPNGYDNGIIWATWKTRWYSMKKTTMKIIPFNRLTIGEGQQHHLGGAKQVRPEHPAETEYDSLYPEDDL
Sequence of fibrin polymerization (P02671 20-639 isoform P02671-2 partner limits assumed): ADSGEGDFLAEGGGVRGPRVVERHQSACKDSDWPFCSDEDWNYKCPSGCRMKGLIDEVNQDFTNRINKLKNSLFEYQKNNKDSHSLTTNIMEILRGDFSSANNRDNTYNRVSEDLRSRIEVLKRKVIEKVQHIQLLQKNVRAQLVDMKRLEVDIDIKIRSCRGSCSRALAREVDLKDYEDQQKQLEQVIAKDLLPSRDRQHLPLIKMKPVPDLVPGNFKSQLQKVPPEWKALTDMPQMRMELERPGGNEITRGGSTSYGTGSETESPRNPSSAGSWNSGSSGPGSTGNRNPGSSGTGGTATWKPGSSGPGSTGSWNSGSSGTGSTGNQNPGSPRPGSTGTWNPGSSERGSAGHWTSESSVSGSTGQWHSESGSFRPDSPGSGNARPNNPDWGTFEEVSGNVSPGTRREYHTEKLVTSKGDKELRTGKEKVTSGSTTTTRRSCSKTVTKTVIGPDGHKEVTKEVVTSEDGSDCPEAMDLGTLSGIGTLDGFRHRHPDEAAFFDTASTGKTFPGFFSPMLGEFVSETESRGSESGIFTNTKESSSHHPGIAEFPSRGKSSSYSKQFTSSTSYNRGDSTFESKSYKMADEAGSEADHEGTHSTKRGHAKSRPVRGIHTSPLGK
Sequence of fibrin polymerization (P02675 45-491 partner limits assumed): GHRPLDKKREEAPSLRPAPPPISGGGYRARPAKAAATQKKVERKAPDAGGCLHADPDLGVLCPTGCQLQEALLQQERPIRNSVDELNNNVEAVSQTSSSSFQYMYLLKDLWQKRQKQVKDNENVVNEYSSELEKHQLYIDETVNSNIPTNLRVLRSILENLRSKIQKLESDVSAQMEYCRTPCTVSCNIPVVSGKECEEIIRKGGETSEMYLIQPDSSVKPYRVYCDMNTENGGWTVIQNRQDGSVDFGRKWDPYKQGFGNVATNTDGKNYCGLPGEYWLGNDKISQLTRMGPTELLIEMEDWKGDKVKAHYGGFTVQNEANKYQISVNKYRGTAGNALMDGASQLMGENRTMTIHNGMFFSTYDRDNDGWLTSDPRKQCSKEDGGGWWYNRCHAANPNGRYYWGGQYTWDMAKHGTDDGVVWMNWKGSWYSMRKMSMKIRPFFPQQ
From the text: (§2) Synthetic peptides modeled after these “knobs” are able to inhibit fibrin polymerization by covering up the “holes” on the gamma chains and are commercially available.
For example, changing Gly1 to anything else destroys its inhibitory action as there appears to be no extra “room” for a side chain in the gamma chain “hole” into which it must fit. However, as noted below, amino acid Pro4 functions differently.

[14] = tested on: foreskin fibroblast cells; experiment: In vitro T cell adhesion assay; assay type: cell-based, human; conditions: Foreskin line, ± SD, triplicate wells
RA synovial fibroblasts [15] = experiment: IL-6 ELISA on cell supernatants; assay type: cell-based, human; conditions: overnight with GPRP
foreskin fibroblasts [16] = experiment: ICAM-1 cell-ELISA (O.D. 492); assay type: cell-based, human
foreskin fibroblasts [17] = experiment: GRO-alpha ELISA on cell culture supernatants; assay type: cell-based, human; conditions: for Increase in GRO-alpha secretion: foreskin FB
endothelial cells = experiment: Fibrin co-culture with endothelial cells; assay type: cell-based
From the text: as §2

[18] = RA line 4, fibrin clot 0.6 mg/ml or GPRP 1 mg/ml
[19] = RA line 9, fibrin clot 0.6 mg/ml or GPRP 1 mg/ml

Gly-Pro-Arg-Pro [GPRP]
Competition with biotin-labeled SAC for binding to human synovial fibroblasts (Synovial cells [1]; unlabeled competitor): can compete | Mean (fluorescence of bound SAC[KBtn]) (Synovial cells [1]; unlabeled competitor 2.5 mg for 3 hours, then labeled SAC[KBtn] for 1 hour, Avidin-FITC): 33.58 | IL-6 (foreskin fibroblasts [2]): 215 pg/mL | Increase of IL-8 production (RA synovial fibroblasts [3]; RA Line 1, forty-eight hours): fifteen | Increase of IL-8 production (RA synovial fibroblasts [3]; RA Line 1, twenty-four hours): 12.6 fold | Increase of IL-8 production (RA synovial fibroblasts [3]; RA Line 2, forty-eight hours): ten | Increase of IL-8 production (RA synovial fibroblasts [3]; RA Line 2, twenty-four hours): ten | IL-8 (RA synovial fibroblasts [3]; RA line 1, 24 hr): 16,000 pg/ml | IL-8 (RA synovial fibroblasts [3]; RA line 1, 48 hr): 17,500 pg/ml | IL-8 (RA synovial fibroblasts [3]; RA line 4, 24 hr): 9,000 pg/ml | IL-8 (RA synovial fibroblasts [3]; RA line 4, 48 hr): 6,800 pg/ml | ICAM-1 O.D. 492 [4]: 0.85 ± .08 | GRO-alpha Fold Increase (RA synovial fibroblasts [5]; RA fibroblasts, visual observation of developed ELISA plates): at least as much as was seen for IL-8 | GRO-alpha (RA synovial fibroblasts [5]; RA line 8, 1 mg/ml GPRP): 8500 pg/mL | GRO-alpha Fold Increase (RA synovial fibroblasts [5]; RA line 8, 1 mg/ml GPRP, versus control): 21X | ICAM-1 % positive (RA synovial cell lines; [18]): 87.0% | ICAM-1 MFC (RA synovial cell lines; [18]): 2.73 | ICAM-1 % positive (RA synovial cell lines; RA line 5, GPRP 1 mg/ml): 74.5% | ICAM-1 MFC (RA synovial cell lines; RA line 5, GPRP 1 mg/ml): 2.00 | ICAM-1 % positive (RA synovial cell lines; RA line 6, GPRP 1 mg/ml): 95.0% | ICAM-1 MFC (RA synovial cell lines; RA line 6, GPRP 1 mg/ml): 9.19 | ICAM-1 % positive (RA synovial cell lines; [19]): 80.1% | ICAM-1 MFC (RA synovial cell lines; [19]): 3.62 | Lines tested that upregulated V-CAM-1 expression [6]: about 50 % of the lines tested | IL-6 gene expression (synovial cells [7]): significantly more IL-6 gene expression than controls | ICAM-1 induction (RA synovial fibroblasts [8]; GPRP at 0.01 mg/ml): not to be significant | ICAM-1 induction (RA synovial fibroblasts [8]; GPRP at 1.0, 0.5, and 0.1 mg/ml): significant induction | ICAM-1 O.D. 492 (RA synovial fibroblasts [8]; RA line 1): 1.38 ± .16 | ICAM-1 O.D. 492 (RA synovial fibroblasts [8]; RA line 2): 0.98 ± .03 | ICAM-1 expression O.D. 492 (RA synovial fibroblasts [8]; RA line 4): 1.04 ± .02 | ICAM-1 expression O.D. 492 (RA synovial fibroblasts [8]; RA line 5): 1.10 ± .03 | ICAM-1 expression O.D. 492 (RA synovial fibroblasts [8]; RA line 9): 0.98 ± .15 | ICAM-1 OD 492 (RA synovial fibroblasts [8]; RA#11, GPRP 0.10 mg/ml overnight): .37 ± 0 | ICAM-1 OD 492 (RA synovial fibroblasts [8]; RA#11, GPRP 0.30 mg/ml overnight): .46 ± .05 | ICAM-1 OD 492 (RA synovial fibroblasts [8]; RA#11, GPRP 1.00 mg/ml overnight): .59 ± .05 | ICAM-1 OD 492 (RA synovial fibroblasts [8]; RA#11, GPRP .001 mg/ml overnight): .24 ± .05 | ICAM-1 OD 492 (RA synovial fibroblasts [8]; RA#11, GPRP .003 mg/ml overnight): .25 ± .03 | ICAM-1 OD 492 (RA synovial fibroblasts [8]; RA#11, GPRP .010 mg/ml overnight): .24 ± .05 | ICAM-1 OD 492 (RA synovial fibroblasts [8]; RA#11, GPRP .030 mg/ml overnight): .31 ± .02 | ICAM-1 OD 492 (RA synovial fibroblasts [8]; RA#12, GPRP 0.10 mg/ml overnight): 0.76 ± .03 | ICAM-1 OD 492 (RA synovial fibroblasts [8]; RA#12, GPRP 0.30 mg/ml overnight): 1.09 ± .06 | ICAM-1 OD 492 (RA synovial fibroblasts [8]; RA#12, GPRP 1.00 mg/ml overnight): 1.42 ± .08 | ICAM-1 OD 492 (RA synovial fibroblasts [8]; RA#12, GPRP .001 mg/ml overnight): 0.51 ± .01 | ICAM-1 OD 492 (RA synovial fibroblasts [8]; RA#12, GPRP .003 mg/ml overnight): 0.53 ± .01 | ICAM-1 OD 492 (RA synovial fibroblasts [8]; RA#12, GPRP .010 mg/ml overnight): 0.57 ± .02 | ICAM-1 OD 492 (RA synovial fibroblasts [8]; RA#12, GPRP .030 mg/ml overnight): 0.62 ± .03 | ICAM-1 expression (RA synovial fibroblasts [8]; more than seven different RA fibroblast lines): consistently increased expression of ICAM-1 | ICAM-1 % positive [9]: 86.7% | ICAM-1 MFC [9]: 2.26 | Adherent T cell numbers ([10]; RA line 7, GPRP 0.1 mg/ml overnight): 184 ± 58 | Adherent T cell numbers ([10]; RA line 7, GPRP 1 mg/ml overnight): 153 ± 54 | Adherent T cell numbers ([10]; RA line 8, GPRP 0.1 mg/ml overnight): 99 ± 18 | Adherent T cell numbers ([10]; RA line 8, GPRP 1 mg/ml overnight): 97 ± 10 | IL-8 (foreskin fibroblasts [11]; 24 hr): 1,840 pg/ml | IL-8 (foreskin fibroblasts [11]; 48 hr): 1,200 pg/ml | Adherent T cell numbers ([12]; GPRP 0.1 mg/ml overnight): 92 ± 27 | Adherent T cell numbers ([12]; GPRP 1 mg/ml overnight): 113 ± 44 | Responsiveness of lung fibroblastic cells (surface pro-inflammatory molecules, secreted mediators) [13]: responsive | Inhibition of fibrin polymerization (fibrin polymerization): good inhibitor of fibrin polymerization | Adherent T cell numbers ([14]; GPRP 0.1 mg/ml overnight): 51 ± 3 | Adherent T cell numbers ([14]; GPRP 1 mg/ml overnight): 54 ± 11 | IL-6 (RA synovial fibroblasts [15]; RA #1): 2400 pg/mL | IL-6 INCREASE over control (RA synovial fibroblasts [15]; RA #1): 1.50X | IL-6 (RA synovial fibroblasts [15]; RA #11): 1700 pg/mL | IL-6 INCREASE over control (RA synovial fibroblasts [15]; RA #11): 6.18X | IL-6 (RA synovial fibroblasts [15]; RA #16): 11100 pg/mL | IL-6 INCREASE over control (RA synovial fibroblasts [15]; RA #16): 3.70X | IL-6 (RA synovial fibroblasts [15]; RA #18): 940 pg/mL | IL-6 INCREASE over control (RA synovial fibroblasts [15]; RA #18): 1.90X | ICAM-1 OD 492 (foreskin fibroblasts [16]; FF-#1, GPRP 0.10 mg/ml overnight): 0.92 ± .02 | ICAM-1 OD 492 (foreskin fibroblasts [16]; FF-#1, GPRP 0.30 mg/ml overnight): 0.99 ± .01 | ICAM-1 OD 492 (foreskin fibroblasts [16]; FF-#1, GPRP 1.00 mg/ml overnight): 1.02 ± .01 | ICAM-1 OD 492 (foreskin fibroblasts [16]; FF-#1, GPRP .001 mg/ml overnight): 0.92 ± .01 | ICAM-1 OD 492 (foreskin fibroblasts [16]; FF-#1, GPRP .003 mg/ml overnight): 0.95 ± .06 | ICAM-1 OD 492 (foreskin fibroblasts [16]; FF-#1, GPRP .010 mg/ml overnight): 0.93 ± .03 | ICAM-1 OD 492 (foreskin fibroblasts [16]; FF-#1, GPRP .030 mg/ml overnight): 0.94 ± .05 | ICAM-1 OD 492 (foreskin fibroblasts [16]; FF-#2, GPRP 0.10 mg/ml overnight): .72 ± .02 | ICAM-1 OD 492 (foreskin fibroblasts [16]; FF-#2, GPRP 0.30 mg/ml overnight): .72 ± .03 | ICAM-1 OD 492 (foreskin fibroblasts [16]; FF-#2, GPRP 1.00 mg/ml overnight): .78 ± .04 | ICAM-1 OD 492 (foreskin fibroblasts [16]; FF-#2, GPRP .001 mg/ml overnight): .69 ± .02 | ICAM-1 OD 492 (foreskin fibroblasts [16]; FF-#2, GPRP .003 mg/ml overnight): .71 ± .04 | ICAM-1 OD 492 (foreskin fibroblasts [16]; FF-#2, GPRP .010 mg/ml overnight): .71 ± .02 | ICAM-1 OD 492 (foreskin fibroblasts [16]; FF-#2, GPRP .030 mg/ml overnight): .70 ± .02 | ICAM-1 expression O.D. 492 (foreskin fibroblasts [16]; Foreskin fibroblasts, overnight, fibrin clots 0.6 mg/ml, GPRP 1 mg/ml or interferon γ 200 U/ml, mean ± SD): 0.55 ± .05 | ICAM-1 O.D. 492 (foreskin fibroblasts [16]; Foreskin line, overnight, IL-1 0.5 ng/ml, GPRP or GPRP-amide 1 mg/ml, fibrinogen receptor peptide 0.1 mg/ml, FPA, FPB 10^−4 M): 0.79 ± .02 | GRO-alpha (foreskin fibroblasts [17]; Foreskin fibroblasts, 1 mg/ml GPRP): 470 pg/mL | GRO-alpha Fold Increase (foreskin fibroblasts [17]; Foreskin fibroblasts, 1 mg/ml GPRP, versus control): 1.2X | Increase in GRO-alpha secretion (foreskin fibroblasts [17]; forty-eight hours): 1.2 fold | Increase in GRO-alpha secretion (foreskin fibroblasts [17]; twenty-four hours): 1.2 fold | Direct effects on endothelial cells (endothelial cells): no direct effects
